Experiments:
[1] = test system: Erysiphe graminis f. sp. tritici; assay: Test A: wheat powdery mildew, preventive spray on wheat seedlings, visual disease rating; format: in vivo; settings: for pest or weed control at 200 ppm: Blumeria graminis, 192 h
Outline: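 Acetone/water (50/50) suspension with 250 ppm surfactant sprayed to run-off on wheat seedlings (200 ppm ≈ 500 g/ha); inoculated next day with E. graminis spore dust. Incubated 8 days at 20° C, then visually rated 0–100% disease control versus untreated controls; tests at 200 ppm or 40 ppm.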

Rhizoctonia oryzae = assay: Test G: turf brown patch, preventive spray on creeping bent grass seedlings, visual disease rating; format: in vivo; settings: for pest or weed control at 200 ppm: Waitea circinata, in Agrostis stolonifera, 120 h
Text: (§1) General protocol for preparing test suspensions for Tests A-H: The test compounds were first dissolved in acetone in an amount equal to 3% of the final volume and then suspended at the desired concentration (in ppm) in acetone and purified water (50/50 mix) containing 250 ppm of the surfactant Trem® 014 (polyhydric alcohol esters). The resulting test suspensions were then used in tests A-H. Spraying a 200 ppm test suspension to the point of run-off on the test plants was the equivalent of a rate of 500 g/ha.
The test suspension was sprayed to the point of run-off on creeping bent grass seedlings. The following day the seedlings were inoculated with a spore suspension of Rhizoctonia oryzae (the causal agent of turf brown patch) and incubated in a saturated atmosphere at 27° C. for 48 h, and then moved to a growth chamber at 27° C. for 3 days, after which time disease ratings were visually made.
(§2) Results for Tests A-H are given in Table A. In the table, a rating of 100 indicates 100% disease control and a rating of 0 indicates no disease control (relative to the controls). A dash (-) indicates no test results. All results are for compounds tested at 200 ppm except where the compound number is followed by “*” which indicates the compound was tested at 40 ppm.

Septoria nodorum = assay: Test D: wheat glume blotch, preventive spray on wheat seedlings, visual disease rating; format: in vivo; settings: for pest or weed control at 200 ppm: Parastagonospora nodorum, 216 h
Outline: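 Compounds in 3% acetone, then 50/50 acetone–water with 250 ppm Trem 014, sprayed to run-off at 200 ppm (500 g/ha; some at 40 ppm) one day before spore inoculation. Held 48 h saturated at 20 °C, then 7 days at 20 °C; visual rating as % disease control vs untreated (0–100).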

Botrytis cinerea = assay: Test F: tomato botrytis, preventive spray on tomato seedlings, visual disease rating; format: in vivo; settings: for pest or weed control at 200 ppm: Botrytis cinerea, 120 h
Outline: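 Tomato seedlings sprayed to run-off with compound suspended in acetone/water (50/50) plus 250 ppm Trem 014, at 200 ppm (≈500 g/ha) or 40 ppm where marked. Inoculated next day with B. cinerea spores, 48 h saturated atmosphere at 20 °C, then 3 days at 24 °C. Visual rating, 0–100% disease control relative to controls.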

Plasmopara viticola = assay: Test H: grape downy mildew, spray after inoculation of grape seedlings, visual disease rating; format: in vivo; settings: for pest or weed control at 200 ppm: Plasmopara viticola, 192 h
Text: as §1
Grape seedlings were inoculated with a spore suspension of Plasmopara viticola (the causal agent of grape downy mildew) and incubated in a saturated atmosphere at 20° C. for 24 h. After a short drying period, the test suspension was sprayed to the point of run-off on the grape seedlings, and then moved to a growth chamber at 20° C. for 6 days, after which time the test units were placed back into a saturated atmosphere at 20° C. for 24 h. Upon removal, disease ratings were visually made.
as §2

Septoria tritici = assay: Test C: wheat leaf blotch, preventive spray on wheat seedlings, visual disease rating; format: in vivo; settings: for pest or weed control at 200 ppm: Zymoseptoria tritici, 504 h
Outline: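 Wheat seedlings sprayed to run-off with compound in acetone/water plus 250 ppm surfactant at 200 ppm (≈500 g/ha), or 40 ppm where marked; inoculated with Septoria tritici next day. Held saturated at 20 °C for 48 h, then 19 days at 20 °C; disease control rated visually 0–100 versus controls.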

Alternaria solani = assay: Test E: tomato early blight, preventive spray on tomato seedlings, visual disease rating; format: in vivo; settings: for pest or weed control at 200 ppm: Alternaria solani, 168 h
Outline: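 Seedlings sprayed to run-off with compound in acetone/water plus 250 ppm Trem 014 (200 ppm ≈ 500 g/ha), inoculated with spores next day. Held 48 h saturated at 27 °C, then 5 days at 20 °C; visual rating 0–100% disease control relative to controls.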

[2] = test system: Puccinia recondite f. sp. tritici; assay: Test B: wheat leaf rust, preventive spray on wheat seedlings, visual disease rating; format: in vivo; settings: for pest or weed control at 200 ppm: 192 h
Outline: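 Wheat seedlings were sprayed to run-off with compound suspension, 200 ppm (≈500 g/ha) or 40 ppm where marked, containing surfactant in acetone/water. Inoculation with Puccinia recondita spores followed one day later, then 24 h in saturated humidity at 20° C and 7 days at 20° C. Disease control was rated visually, 0–100% versus controls.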

[3] = 200 ppm, 100 = 100% disease control, 0 = no control
[4] = 40 ppm (compound number followed by *)

| Structure (SMILES) | Test A rating (% disease control) [1, 3] | Test G rating (% disease control) (Rhizoctonia oryzae; [3]) | Test D rating (% disease control) (Septoria nodorum; [3]) | Test F rating (% disease control) (Botrytis cinerea; [3]) | Test H rating (% disease control) (Plasmopara viticola; [3]) | Test C rating (% disease control) (Septoria tritici; [3]) | Test E rating (% disease control) (Alternaria solani; [3]) | Test B rating (% disease control) [2, 3] | also measured |
| --- | --- | --- | --- | --- | --- | --- | --- | --- | --- |
| COc1cc(OC)cc(-c2c(C(C)=O)cnc(C)c2-c2ccccc2F)c1 [Compound 17] | 96% | 60% | 0% | 99% | 0% | 100% | 46% | 98% |  |
| CCOC(=O)c1cnc(C)c(-c2ccccc2)c1-c1cc(OC)c(OC)c(OC)c1 [Compound 6] | 0% | 0% | 0% | 89% | 0% | 1% | 0% | 0% |  |
| C=C(C)c1cnc(C)c(-c2ccc(F)cc2)c1-c1cc(OC)cc(OC)c1 [Compound 16, 4-(3,5-dimethoxyphenyl)-3-(4-fluorophenyl)-2-methyl-5-(1-methylethenyl)pyridine] |  |  |  |  |  |  |  |  | pest or weed control at 200 ppm [1, 3]: 99%; pest or weed control at 200 ppm (Rhizoctonia oryzae; [3]): 99%; pest or weed control at 200 ppm (Septoria nodorum; [3]): 73%; pest or weed control at 200 ppm (Botrytis cinerea; [3]): 99%; pest or weed control at 200 ppm (Plasmopara viticola; [3]): 0%; pest or weed control at 200 ppm (Septoria tritici; [3]): 100%; pest or weed control at 200 ppm (Alternaria solani; [3]): 99%; pest or weed control at 200 ppm [2, 3]: 100% |
| COc1cc(OC)cc(-c2c(-c3ccc(F)cc3F)cnc(C)c2-c2ccc(F)cc2)c1 [Compound 38] | 95% | 56% | 0% | 98% | 0% | 100% | 87% | 80% |  |
| COc1cc(OC)cc(-c2c(C(C)C)cnc(C)c2-c2ccccc2)c1 [Compound 4] | 99% | 0% | 0% | 99% | 0% | 99% | 99% | 92% |  |
| COc1cc(OC)cc(-c2c(-c3ccc(F)cc3)cnc(C)c2-c2ccccc2)c1 [Compound 36] | 65% | 14% | 0% | 94% | 0% | 93% | 30% | 0% |  |
| CCOC(=O)c1cnc(C)c(-c2ccccc2)c1-c1cc(OC)ccc1Cl [Compound 7] | 97% | 97% | 0% | 98% | 0% | 52% | 0% | 74% |  |
| CCOC(=O)c1cnc(C)c(-c2c(F)cc(F)cc2F)c1-c1cc(OC)cc(OC)c1 [Compound 130, ethyl 4-(3,5-dimethoxyphenyl)-6-methyl-5-(2,4,6-trifluorophenyl)-3-pyridinecarboxylate] |  |  |  |  |  |  |  |  | pest or weed control at 200 ppm [1, 3]: 100%; pest or weed control at 200 ppm (Septoria nodorum; [3]): 0%; melting point: 93 to 95 °C; pest or weed control at 200 ppm (Botrytis cinerea; [3]): 100%; pest or weed control at 200 ppm (Alternaria solani; [3]): 99%; pest or weed control at 200 ppm [2, 3]: 93% |
| CNC(=O)c1cnc(C)c(-c2ccccc2)c1-c1cc(OC)cc(OC)c1 [Compound 9] | 94% | 0% | 0% | 37% | 0% | 86% | 99% | 0% |  |
| COc1cc(OC)cc(-c2c(-c3ccccc3)c(C)[n+]([O-])c(C)c2-c2ccccc2F)c1 [Compound 24] |  |  |  |  |  |  |  |  | Test A rating (% disease control) [1, 4]: 91%; Test G rating (% disease control) (Rhizoctonia oryzae; [4]): 0%; Test D rating (% disease control) (Septoria nodorum; [4]): 0%; Test F rating (% disease control) (Botrytis cinerea; [4]): 99%; Test H rating (% disease control) (Plasmopara viticola; [4]): 0%; Test C rating (% disease control) (Septoria tritici; [4]): 97%; Test E rating (% disease control) (Alternaria solani; [4]): 76%; Test B rating (% disease control) [2, 4]: 95% |
| COc1cc(OC)cc(-c2c(-c3ccccc3)cnc(C)c2-c2ccc(F)cc2)c1 [Compound 34, 4-(3,5-dimethoxyphenyl)-3-(4-fluorophenyl)-5-phenyl-2-methylpyridine] |  |  |  |  |  |  |  |  | pest or weed control at 200 ppm [1, 3]: 96%; pest or weed control at 200 ppm (Rhizoctonia oryzae; [3]): 63%; pest or weed control at 200 ppm (Septoria nodorum; [3]): 77%; pest or weed control at 200 ppm (Botrytis cinerea; [3]): 99%; pest or weed control at 200 ppm (Plasmopara viticola; [3]): 0%; pest or weed control at 200 ppm (Septoria tritici; [3]): 100%; pest or weed control at 200 ppm (Alternaria solani; [3]): 96%; pest or weed control at 200 ppm [2, 3]: 96% |
| COc1cc(OC)cc(-c2c(-c3ccccc3F)c[n+]([O-])c(C)c2-c2ccc(F)cc2)c1 [Compound 39, 4-(3,5-dimethoxyphenyl)-5-(2-fluorophenyl)-3-(4-fluorophenyl)-2-methylpyridine 1-oxide] |  |  |  |  |  |  |  |  | pest or weed control at 200 ppm [1, 3]: 98%; pest or weed control at 200 ppm (Rhizoctonia oryzae; [3]): 35%; pest or weed control at 200 ppm (Septoria nodorum; [3]): 100%; pest or weed control at 200 ppm (Botrytis cinerea; [3]): 94%; pest or weed control at 200 ppm (Plasmopara viticola; [3]): 0%; pest or weed control at 200 ppm (Septoria tritici; [3]): 100%; pest or weed control at 200 ppm (Alternaria solani; [3]): 100%; pest or weed control at 200 ppm [2, 3]: 100% |
| CCOC(=O)c1cnc(C)c(-c2ccccc2)c1-c1cc(F)cc(F)c1 [Compound 8] | 98% | 0% | 0% | 0% | 17% | 0% | 0% | 0% |  |
| COc1cc(OC)cc(-c2c(-c3ccccc3F)cnc(C)c2-c2ccccc2)c1 [Compound 32] | 98% | 99% | 0% | 99% | 0% | 99% | 59% | 96% |  |
| CCOC(=O)c1cnc(CC)c(-c2ccccc2)c1-c1cc(OC)cc(OC)c1 [Compound 31] | 0% | 0% | 0% | 41% | 0% | 80% | 0% | 0% |  |
